Assay results published in patent publication US10183039B2, “Methods for the production of collagen IV” (Vanderbilt University, priority 2013, dated 2019).

What was measured:
[1] = increased salt concentrations (Fairbanks and Burch, 1970); cited from earlier work
[2] = biological target: T1, peroxidasin (Mus musculus, UniProt Q3UQ28); assay: In vitro basement membrane (uncrosslinked PFHR-9 matrix) reaction with halides and H2O2; assay type: biochemical
T1 construct: Cultured murine PFHR9 cells synthesize collagen IV networks that contain sulfilimine crosslinks due to the activity of PXDN; endogenous in cells; host or cells: PFHR-9 cells (isolated matrix from KI-treated culture)
T1 sequence (Q3UQ28 24-1475): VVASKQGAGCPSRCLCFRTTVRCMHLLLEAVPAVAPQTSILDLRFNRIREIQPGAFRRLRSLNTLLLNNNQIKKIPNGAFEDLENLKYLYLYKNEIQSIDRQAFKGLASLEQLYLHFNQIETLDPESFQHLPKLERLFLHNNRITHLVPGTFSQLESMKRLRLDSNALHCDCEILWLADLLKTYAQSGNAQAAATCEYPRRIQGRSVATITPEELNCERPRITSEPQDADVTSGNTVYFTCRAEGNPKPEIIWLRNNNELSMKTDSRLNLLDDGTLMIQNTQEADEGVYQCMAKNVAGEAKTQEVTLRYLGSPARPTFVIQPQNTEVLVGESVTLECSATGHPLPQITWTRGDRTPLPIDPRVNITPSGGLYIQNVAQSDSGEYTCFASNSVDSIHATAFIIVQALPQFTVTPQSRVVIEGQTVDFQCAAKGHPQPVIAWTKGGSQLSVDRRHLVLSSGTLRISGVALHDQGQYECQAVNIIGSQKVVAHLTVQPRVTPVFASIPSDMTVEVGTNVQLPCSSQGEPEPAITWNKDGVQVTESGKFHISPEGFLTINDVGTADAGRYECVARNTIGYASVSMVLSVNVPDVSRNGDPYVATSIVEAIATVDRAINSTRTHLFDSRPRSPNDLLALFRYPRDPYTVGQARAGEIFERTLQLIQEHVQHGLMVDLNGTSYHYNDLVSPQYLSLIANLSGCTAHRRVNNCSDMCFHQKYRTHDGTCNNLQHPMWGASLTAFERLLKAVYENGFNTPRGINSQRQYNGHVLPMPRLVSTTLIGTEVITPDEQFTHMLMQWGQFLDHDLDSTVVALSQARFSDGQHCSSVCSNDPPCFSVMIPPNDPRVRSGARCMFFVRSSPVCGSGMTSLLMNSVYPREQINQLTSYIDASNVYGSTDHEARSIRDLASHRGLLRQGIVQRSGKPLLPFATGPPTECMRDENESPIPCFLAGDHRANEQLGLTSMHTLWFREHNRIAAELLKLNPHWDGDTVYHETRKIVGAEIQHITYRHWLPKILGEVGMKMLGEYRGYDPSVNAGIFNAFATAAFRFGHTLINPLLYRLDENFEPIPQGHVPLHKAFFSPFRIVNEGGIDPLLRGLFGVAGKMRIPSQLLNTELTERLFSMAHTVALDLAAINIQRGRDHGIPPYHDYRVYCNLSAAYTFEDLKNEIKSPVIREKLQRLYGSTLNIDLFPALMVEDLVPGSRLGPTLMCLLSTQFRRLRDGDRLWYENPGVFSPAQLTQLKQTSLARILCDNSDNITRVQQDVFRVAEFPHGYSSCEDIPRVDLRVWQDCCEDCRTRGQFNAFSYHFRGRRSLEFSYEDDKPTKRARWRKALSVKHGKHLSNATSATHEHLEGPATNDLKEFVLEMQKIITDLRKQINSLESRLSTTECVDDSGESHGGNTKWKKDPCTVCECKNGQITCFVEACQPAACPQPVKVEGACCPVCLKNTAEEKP
Description: (FIG. 8A) Matrix pellets isolated from KI-treated PFHR9 cell culture were extensively washed into 10 mM phosphate buffer (pH 7.4) supplemented with 100 mM KF to maintain ionic strength. Potassium salts of Cl— or Br— were added in indicated amounts. 1 hr reactions at 37° C. were initiated by addition of H2O2 to 1 mM and stopped by freezing at −20° C. Coomassie blue-stained gels after collagenase digestion of the samples and SDS-PAGE (FIG. 8B) Schematic of Br-Free chloride salt purification apparatus and setup. […] Reagent KCl was commercially obtained and unaltered prior to analysis. 100 mM solutions were made with 18MΩ deionized water. (FIG. 8C) Coomassie blue stained gel of collagenase digested PFHR-9 matrix reaction assay. Reaction buffered contained 10 mM phosphate buffer (pH 7.4), 100 mM Br-Free or Commercially obtained reagent grade KCl, as well as 1 mM H2O2 and 200 μM PHG where appropriate. (FIG. 8D) SDS-PAGE and coomassie blue stain of hPXDN (27.25 nM) and NC1 domain (1.3 μM) reaction and subsequent densiometric quantitation of S═N bond formation stiochiometry in response to NaBr addition. hPXDN and PFHR-9 NC1 domain were prepared and purified as described (5), except with all buffers for all purification steps (dialysis, chromatography, gradient ultracentrifugation) made with Br-Free chloride salts. Reactions were run for 10 minutes at 37° C. with 10 μM H2O2 as the terminal oxidant. Dose-response curve run in the presence of 1× Br-Free PBS. Reactions were quenched with 0.2 mg/ml Catalase, 20 mM Methionine, and 1 mM PHG. EC50 value±95% C.I. from two independent experiments with each data point plotted and fit.
Uncrosslinked PFHR9 matrix was extensively washed into 10 mM phosphate buffer (pH 7.4) that was supplemented with 100 mM KF to maintain ionic strength. One hour reactions at 37° C. were initiated by addition of H2O2 to 1 mM and stopped by freezing at −20° C. […] Samples were digested with collagenase at 37° C. overnight and visualized by SDS-PAGE using 12% gels under non-reducing conditions with Coomassie staining.
PFHR-9 cells treated with potassium iodide (1-10 mM) to eliminate NC1 hexamer crosslinks were used for basement membrane isolation. To test halide dependency, the inventors established halide-free conditions by washing extensively (at least five times) with 10 mM sodium phosphate pH 7.4. To try to extract or inactivate endogenous basement membrane peroxidase activity, the inventors extracted the matrix preparation twice with 2M guanidine-Cl, 50 mM Tris-Cl pH 7.5 and 10 mM EDTA-Na pH 8 followed by extensive washing with 1×PBS. Basement membrane was resuspended in the desired buffer with or without cofactors and inhibitors to examine in vitro NC1 crosslinking under various conditions. Basement membranes were collagenase solubilized to delineate collagen IV NC1 sulfilimine crosslink formation with SDS-PAGE and Coomassie blue staining membrane was isolated, washed extensively and resuspended in 1×PBS. Azide (0-10 mM) and 1 mM H2O2 were added and allowed to react for 1 h at 37° C. The matrix was pelleted, washed extensively with 1×PBS and solubilized with 1×PBS plus 2% (w/v) SDS. Solubilized proteins were reacted with 100 μM Tris[(1-benzyl-1H-1,2,3-triazol-4-yl)methyl]amine (Anaspec), 1 mM Tris(2-carboxyethyl)phosphine hydrochloride (ThermoFisher Pierce), 1 mM cupric sulfate and 100 μM biotin alkyne (PEG4 carboxamide-propargyl biotin; Life Technologies) for 1 h at 37° C. Click chemistry reactions were quenched with 1 mM 3′-azido-3′-deoxythymidine (Sigma). For avidin-HRP detection, samples were electrophoresed under reducing conditions, transferred to nitrocellulose membranes and probed with streptavidin-HRP according to manufacturer instructions (ThermoFisher Pierce). To isolate biotinylated proteins, the inventors precipitated click reaction products with two volumes of cold acetone to remove reactants, washed them with 70% (v/v) acetone and then resolubilized them in 1×PBS plus 2% SDS.

For `Cl` [chloride], the “half-life in the fly” value [1] is given as roughly 5 h, the “halide concentration permitting enzymatic crosslinking within purified matrix” value [2] is given as 100 mM and the “S═N bond formation in isolated matrix” value ([2]; 10 mM phosphate pH 7.4, 100 mM KF, 1 mM H2O2, 1 h at 37° C.) is given as “remained inactive until 100 mM”. For the same compound, the “dimer formation with bromide-free chloride as halide source” value ([2]; 100 mM Br-free chloride salt, 1 mM H2O2, isolated PFHR-9 matrix) was “insufficient for the reaction” and the “halide concentration at which crosslinked dimeric subunits formed” value ([2]; H2O2 added to uncrosslinked basement membrane without other halides (FIG. 3B)) was roughly 100 mM.
